As usually defined, the EC50 is the concentration that produces a half-maximal response. By solubility is commonly meant how much of the substance goes into solution per volume.

Molecules are shown by their SMILES. ≈ marks a conversion by molar mass, not a printed value. Read-outs that look alike come from different tables or passages of the source. Starred links: 1 amine or outer side, 2 acyl side, 3 side chain; linkers in the order of their positions; H or OH if unused. Positions of bridges follow the written chain, without caps; N, C: chain ends. Residues, ends and D or L forms follow the SMILES beside them. *: point of attachment. C20 diacid = O=C(O)CCCCCCCCCCCCCCCCCCC(=O)*; γGlu = O=C(O)[C@H](CCC(=O)[*:2])N[*:1]

This is an account of results in patent US8722849B2, “Polypeptides” (Novo Nordisk A/S, priority 2011, dated 2014).

The target of data set [1] is T1, human amylin receptor (amylin 3(a) receptor: human calcitonin receptor + RAMP-3) (Homo sapiens, UniProt O60896+P30988).
T1 construct: expressed in transfected cells; host or cells: BHK570
T1 sequence (P30988 25-474): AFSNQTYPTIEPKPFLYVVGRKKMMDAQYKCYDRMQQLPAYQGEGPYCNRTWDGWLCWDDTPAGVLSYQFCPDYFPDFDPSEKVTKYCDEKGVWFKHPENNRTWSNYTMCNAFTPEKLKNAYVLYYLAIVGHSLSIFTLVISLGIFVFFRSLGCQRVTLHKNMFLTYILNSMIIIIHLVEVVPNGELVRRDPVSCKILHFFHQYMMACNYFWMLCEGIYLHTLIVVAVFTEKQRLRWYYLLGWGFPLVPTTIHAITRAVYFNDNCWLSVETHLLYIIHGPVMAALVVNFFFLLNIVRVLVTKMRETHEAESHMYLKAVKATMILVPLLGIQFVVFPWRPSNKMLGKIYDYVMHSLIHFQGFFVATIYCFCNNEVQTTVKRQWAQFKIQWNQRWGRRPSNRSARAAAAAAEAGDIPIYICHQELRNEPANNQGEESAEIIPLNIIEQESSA
T1 sequence (O60896 24-148 partner): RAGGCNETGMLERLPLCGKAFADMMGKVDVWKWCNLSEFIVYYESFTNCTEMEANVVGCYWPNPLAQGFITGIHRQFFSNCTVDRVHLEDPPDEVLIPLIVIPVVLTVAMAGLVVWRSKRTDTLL
As to the kind of experiment: Assay (II)a functional CRE-luciferase assay, human amylin receptor. The following applies: Table 2; BHK amylin 3(a)-receptor/CRE-luc cells. It is filed as cell-based.

In data set [2] the target is T2, rat amylin 3(a) receptor (rat calcitonin(a) receptor + rat RAMP3) (Rattus norvegicus, UniProt P32214+Q9JJ73).
T2 construct: expressed in transfected cells; host or cells: BHK tk'ts 13
T2 sequence (P32214 25-479 isoform P32214-2 limits assumed): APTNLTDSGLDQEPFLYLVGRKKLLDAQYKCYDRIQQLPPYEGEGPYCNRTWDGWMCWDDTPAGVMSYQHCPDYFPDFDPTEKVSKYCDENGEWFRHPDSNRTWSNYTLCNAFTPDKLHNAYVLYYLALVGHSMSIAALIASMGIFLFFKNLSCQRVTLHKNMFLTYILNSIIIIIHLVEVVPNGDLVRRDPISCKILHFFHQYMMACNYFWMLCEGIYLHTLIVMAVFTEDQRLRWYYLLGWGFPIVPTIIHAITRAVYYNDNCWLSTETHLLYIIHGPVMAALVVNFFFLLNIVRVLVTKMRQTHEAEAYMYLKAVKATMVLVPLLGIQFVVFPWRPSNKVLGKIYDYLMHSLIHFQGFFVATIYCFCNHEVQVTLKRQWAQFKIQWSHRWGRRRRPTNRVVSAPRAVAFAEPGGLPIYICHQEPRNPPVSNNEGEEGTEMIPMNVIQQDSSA
T2 sequence (Q9JJ73 23-147 partner): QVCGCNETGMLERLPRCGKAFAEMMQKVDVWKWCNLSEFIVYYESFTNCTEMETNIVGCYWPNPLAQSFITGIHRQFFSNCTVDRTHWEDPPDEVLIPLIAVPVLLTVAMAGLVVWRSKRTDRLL
As to the kind of experiment: Assay (II)b functional cAMP FlashPlate assay, rat amylin receptor. It is filed as cell-based. The following applies: Table 11. The procedure, abridged:
(§1)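 cAMP accumulation in transiently transfected BHK tk'ts 13 cells, 100.000 cells/well, expressing rat calcitonin(a) receptor or its RAMP3 co-expression form (amylin 3(a)): 30 min stimulation with IBMX, 24 hours post-transfection. Readout by competition of cellular versus radiolabelled cAMP in FlashPlates, scintillation counted after 3 h.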

Data set [3] concerns the target T3, rat calcitonin (a) receptor (Rattus norvegicus, UniProt P32214).
T3 construct: expressed in transfected cells; host or cells: BHK tk'ts 13
T3 sequence (P32214 25-479 isoform P32214-2 limits assumed): T2 sequence (P32214 25-479 isoform P32214-2 limits assumed)
As to the kind of experiment: Assay (II)b functional cAMP FlashPlate assay, rat calcitonin receptor. The following applies: Table 11; read-out: CTa receptor rat EC50. Type of data set: cell-based. The procedure, abridged: as §1

Data set [4] concerns the target T4, human calcitonin receptor (Homo sapiens, UniProt P30988).
T4 construct: expressed in transfected cells; host or cells: BHK570
T4 sequence (P30988 25-474): T1 sequence (P30988 25-474)
As to the kind of experiment: Assay (II)a functional CRE-luciferase assay, human calcitonin receptor. It is filed as cell-based. The following applies: Table 7; human calcitonin (CTa) receptor.

Data set [5] is described as follows: Assay (IV) determination of solubility. Type of data set: physicochemical. The procedure, abridged:
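Stock ~500 nmol/ml in water; 1:1 with 100 mM buffer, pH 3.0–8.0 (glycylglycine ≤5.0, bistrispropane ≥6.0); 18 h RT; spin; HPLC quantitation of soluble polypeptide.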

Where [6] appears, read: bistrispropane buffer, pH 6, pH 6.0, read-out: Solubility pH 6.0.
[7] abbreviates: bistrispropane buffer, pH 6.5, pH 6.5, read-out: Solubility pH 6.5.
The mark [8] stands for this setting: bistrispropane buffer, pH 7, pH 7.0, 18 hours at room temperature, Table 3, read-out: Solubility pH 7.0.
Where [9] appears, read: bistrispropane buffer, pH 7, pH 7.0, Table 8, read-out: Solubility pH 7.0.
Where [10] appears, read: bistrispropane buffer, pH 7, pH 7.0, Table 9, read-out: Solubility pH 7.0.
Setting [11] is: bistrispropane buffer, pH 7, pH 7.0, read-out: Solubility pH 7.0.
[12] abbreviates: bistrispropane buffer, pH 7.5, pH 7.5, Table 9, read-out: Solubility pH 7.5.
[13] abbreviates: bistrispropane buffer, pH 7.5, pH 7.5, read-out: Solubility pH 7.5.
[14] abbreviates: bistrispropane buffer, pH 8, pH 8.0, read-out: Solubility pH 8.0.
[15] abbreviates: glycylglycine buffer, pH 3, pH 3.0, read-out: Solubility pH 3.0.
Where [16] appears, read: glycylglycine buffer, pH 4, pH 4.0, 18 hours at room temperature, Table 2, read-out: Solubility pH 4.0.
Setting [17] is: glycylglycine buffer, pH 4, pH 4.0, read-out: Solubility pH 4.0.
Setting [18] is: glycylglycine buffer, pH 5, pH 5.0, read-out: Solubility pH 5.0.

`CC[C@H](C)[C@H](NC(=O)[C@@H]1CCCN1C(=O)CNC(=O)[C@H](Cc1ccccc1)NC(=O)[C@H](CC(N)=O)NC(=O)[C@H](CC(N)=O)NC(=O)[C@H](CO)NC(=O)[C@H](CO)NC(=O)[C@H](Cc1c[nH]cn1)NC(=O)[C@H](CCCNC(=N)N)NC(=O)[C@H](CC(C)C)NC(=O)[C@H](Cc1ccccc1)NC(=O)[C@H](CCC(=O)O)NC(=O)[C@H](C)NC(=O)[C@H](CC(C)C)NC(=O)[C@H](CCCNC(=N)N)NC(=O)[C@H](CCC(N)=O)NC(=O)[C@@H](NC(=O)[C@H](C)NC(=O)[C@@H]1CSSC[C@H](NC(=O)[C@H](Cc2c[nH]cn2)NC(=O)CC[C@H](NC(=O)CCCCCCCCCCCCCCCCCCC(=O)O)C(=O)O)C(=O)N[C@@H](CC(N)=O)C(=O)N[C@@H]([C@@H](C)O)C(=O)N[C@@H](C)C(=O)N[C@@H]([C@@H](C)O)C(=O)N1)[C@@H](C)O)C(=O)N[C@@H](CC(C)C)C(=O)N1CCC[C@H]1C(=O)N1CCC[C@H]1C(=O)N[C@H](C(=O)N[C@@H](CC(N)=O)C(=O)N[C@H](C(=O)NCC(=O)N[C@@H](CO)C(=O)N[C@@H](CC(N)=O)C(=O)N[C@H](C(=O)N1CCC[C@H]1C(N)=O)[C@@H](C)O)C(C)C)[C@@H](C)O` [Example 90, N-alpha-[(S)-4-Carboxy-4-(19-carboxynonadecanoylamino)butyryl]-[His1,Glu14,Arg17,Pro37]-pramlintide] ({C20 diacid-γGlu}-HCNTATCATQRLAEFLRHSSNNFGPILPPTNVGSNTP-NH2; disulfide 2-7 (inferred); C-terminus assumed): the EC50 was 0.0325 nM in data set [1], 0.217 nM in data set [2], 0.128 nM in data set [3] and 0.0475 nM in data set [4]. For the same compound, the solubility at 18 h in data set [5] (setting [6]), in data set [5] (setting [7]), in data set [5] (setting [8]), in data set [5] (setting [9]), in data set [5] (setting [10]) and in data set [5] (setting [11]) was greater than 200 µM each time. For the same compound, the solubility at 18 h in data set [5] (setting [12]), in data set [5] (setting [13]), in data set [5] (setting [14]), in data set [5] (setting [15]), in data set [5] (setting [16]) and in data set [5] (setting [17]) was greater than 200 µM each time. For the same compound, in data set [5] (setting [18]), the solubility at 18 h is greater than 200 µM.
On to `CC[C@H](C)[C@H](NC(=O)[C@@H]1CCCN1C(=O)CNC(=O)[C@H](Cc1ccccc1)NC(=O)[C@H](CC(N)=O)NC(=O)[C@H](CC(N)=O)NC(=O)[C@H](CO)NC(=O)[C@H](CO)NC(=O)[C@H](Cc1c[nH]cn1)NC(=O)[C@@H](NC(=O)[C@H](CC(C)C)NC(=O)[C@H](Cc1ccccc1)NC(=O)[C@H](CCC(=O)O)NC(=O)[C@H](C)NC(=O)[C@H](CC(C)C)NC(=O)[C@H](CCCNC(=N)N)NC(=O)[C@H](CCC(N)=O)NC(=O)[C@@H](NC(=O)[C@H](C)NC(=O)[C@@H]1CSSC[C@H](NC(=O)[C@H](CCCCN)NC(=O)CC[C@H](NC(=O)CCCCCCCCCCCCCCCCCCC(=O)O)C(=O)O)C(=O)N[C@@H](CC(N)=O)C(=O)N[C@@H]([C@@H](C)O)C(=O)N[C@@H](C)C(=O)N[C@@H]([C@@H](C)O)C(=O)N1)[C@@H](C)O)C(C)C)C(=O)N[C@@H](CC(C)C)C(=O)N1CCC[C@H]1C(=O)N1CCC[C@H]1C(=O)N[C@H](C(=O)N[C@@H](CC(N)=O)C(=O)N[C@H](C(=O)NCC(=O)N[C@@H](CO)C(=O)N[C@@H](Cc1c[nH]cn1)C(=O)N[C@H](C(=O)N[C@@H](Cc1ccc(O)cc1)C(N)=O)[C@@H](C)O)C(C)C)[C@@H](C)O` [Example 93, N-alpha-[(S)-4-Carboxy-4-(19-carboxynonadecanoylamino)butyryl]-[Glu14,His35]-pramlintide] ({C20 diacid-γGlu}-KCNTATCATQRLAEFLVHSSNNFGPILPPTNVGSHTY-NH2; disulfide 2-7 (inferred); C-terminus assumed), for which the EC50 in data set [1] was determined as 0.136 nM; in data set [2] it was 0.138 nM; in data set [3], 0.215 nM; in data set [4], 0.18 nM. Also, the solubility at 18 h in data set [5] (setting [6]) was greater than 200 µM; in data set [5] (setting [7]), 84 µM (≈ 373 µg/mL); in data set [5] (setting [11]), 74 µM (≈ 329 µg/mL); in data set [5] (setting [13]), 163 µM (≈ 724 µg/mL); in data set [5] (setting [14]), greater than 200 µM; in data set [5] (setting [15]) it was greater than 200 µM. For the same compound, the solubility at 18 h in data set [5] (setting [16]), in data set [5] (setting [17]) and in data set [5] (setting [18]) was greater than 200 µM in each case.
With `CC[C@H](C)[C@H](NC(=O)[C@@H]1CCCN1C(=O)CNC(=O)[C@H](Cc1ccccc1)NC(=O)[C@H](CC(N)=O)NC(=O)[C@H](CC(N)=O)NC(=O)[C@H](CO)NC(=O)[C@H](CO)NC(=O)[C@H](Cc1c[nH]cn1)NC(=O)[C@H](Cc1c[nH]cn1)NC(=O)[C@H](CC(C)C)NC(=O)[C@H](Cc1ccccc1)NC(=O)[C@H](CCC(=O)O)NC(=O)[C@H](C)NC(=O)[C@H](CC(C)C)NC(=O)[C@H](CCCNC(=N)N)NC(=O)[C@H](CCC(N)=O)NC(=O)[C@@H](NC(=O)[C@H](C)NC(=O)[C@@H]1CSSC[C@H](NC(=O)[C@H](CCCNC(=N)N)NC(=O)CC[C@H](NC(=O)CCCCCCCCCCCCCCCCCCC(=O)O)C(=O)O)C(=O)N[C@@H](CC(N)=O)C(=O)N[C@@H]([C@@H](C)O)C(=O)N[C@@H](C)C(=O)N[C@@H]([C@@H](C)O)C(=O)N1)[C@@H](C)O)C(=O)N[C@@H](CC(C)C)C(=O)N1CCC[C@H]1C(=O)N1CCC[C@H]1C(=O)N[C@H](C(=O)N[C@@H](CC(N)=O)C(=O)N[C@H](C(=O)NCC(=O)N[C@@H](CO)C(=O)N[C@@H](CC(N)=O)C(=O)N[C@H](C(=O)N1CCC[C@H]1C(N)=O)[C@@H](C)O)C(C)C)[C@@H](C)O` [Example 96, N-alpha-[(S)-4-Carboxy-4-(19-carboxynonadecanoylamino)butyryl]-[Arg1,Glu14,His17,Pro37]-pramlintide] ({C20 diacid-γGlu}-RCNTATCATQRLAEFLHHSSNNFGPILPPTNVGSNTP-NH2; disulfide 2-7 (inferred)), the concentration giving a half-maximal response (EC50) in data set [1] came to 0.043 nM; in data set [2], 0.088 nM; in data set [3], 0.058 nM; in data set [4] it was 0.055 nM. Besides, the solubility at 18 h in data set [5] (setting [6]), in data set [5] (setting [7]), in data set [5] (setting [8]), in data set [5] (setting [9]), in data set [5] (setting [10]) and in data set [5] (setting [11]) was greater than 200 µM throughout. For the same compound, the solubility at 18 h in data set [5] (setting [12]), in data set [5] (setting [13]), in data set [5] (setting [14]), in data set [5] (setting [15]), in data set [5] (setting [16]) and in data set [5] (setting [17]) was greater than 200 µM in each case. For the same compound, the solubility at 18 h in data set [5] (setting [18]) is greater than 200 µM.
